Like-named read-outs stand apart in the source and are kept apart here.
Assays:
[1] = test system: brown fat; settings: rats; 5 mg/kg body wt; cited from earlier work
[2] = test system: brown adipose tissue; experiment: PET scan, 18FDG uptake by brown adipose tissue; assay type: in vivo, mice
Description: (§1) ^18F-FDG was purchased from PETNET. Mice were fasted overnight before CT or PET scan. For PET scan animals were injected with 0.1-0.2 mCi of ^18F-FDG in sterile saline. Approximately, 0.02 to 0.05 ml was administered intravenously (tail vein) under 2% Isoflurane and animal was allowed to remain awake for 60 mins in their cages to allow distribution and uptake of ^18F-FDG. During the scan 2% isoflurane was used and the mouse was laid in the supine position on the scanner. All PET acquisitions were performed with an Inveon (Siemens Medical Solutions) preclinical PET scanner. PET data was acquired for 30 min. When used with PET scanner CT data was obtained immediately after PET imaging without changing the position of the animal. PET images were corrected for attenuation, scatter, randoms, and dead time. Images were reconstructed as 128×128 matrices using a fast MAP algorithm with a smoothing factor of 0.1. CT HU of BAT and WAT was obtained by calibrating the CT data using linear interpolation of water CT Density (CT HU=0) and air CT density (CT HU=−1000). After the scan procedure, animals were allowed to recover from anesthesia, placed in their cages and monitored for normal recovery.
(§2) All scanning data was acquired in full list mode and sorted into a single frame, 3 dimensional sinogram, which was rebinned using a Fourier rebinning algorithm. […]

[3] = test system: brown fat; settings: man; 1 mg/kg; cited from earlier work
[4] = test system: skeletal muscle; experiment: PET imaging, 18FDG uptake by skeletal muscle; assay type: in vivo, mice; settings: FIG. 7
Description: as §1, §2

[5] = diet-induced obesity model in mice (high fat/high fructose diet): weight gain and blood glucose; assay type: in vivo, C57BL/6 mice; settings: 20, 100 or 500 μg/kg s.c. on alternate days
Description: The accompanying figures show the obesity-deterring efficacy of ShK-186 in the diet-induced obesity model in C57BL/J mice (diet composed of 21% fat+60% fructose-water). 8 week old C57BL/6 mice were purchased from Harlan Co. (Indianapolis, Ind.). They were fed a specialized high fat diet (#TD88137; 21% fat) purchased from Harlan Co. (Indianapolis, Ind.), and they received a 60% fructose solution to drink. The mice were administered vehicle (P6N) or ShK-186 (20, 100 or 500 μg/kg) by subcutaneous injections on alternate days. Animals were weighed on alternate days. Blood glucose levels were monitored every 6 days by tail-vein sampling using an Accu-Chek compact glucometer from Roche. The animal experimental protocol was approved by the Institutional Animal Care and Use Committee at University of California, Irvine.
All mice received the high fat/high fructose diet throughout the trial. They received vehicle (P6N) or ShK-186 (20, 100 or 500 μg/kg) on alternate days by subcutaneous injection. The weight is normalized to the average weight at the start of the study. All the mice in this study were males. Using repeated measures ANOVA, the p value <0.0001 for all the ShK-186 doses.

[6] = test system: white adipose tissue; experiment: CT scan of white adipose tissue in the diet-induced obesity model; assay type: in vivo, C57BL/6 mice; settings: 500 μg/kg; after 45 days on high fat/high fructose diet; vs vehicle; p=0.000708; FIG. 3A/3B
Description: Mice were fasted overnight before CT scans. All CT acquisitions were performed with an Inveon (Siemens Medical Solutions) preclinical CT scanner. During the scan 2% isoflurane was used and the mouse was laid in the supine position on the scanner. Images were reconstructed as 128×128 matrices using a fast MAP algorithm with a smoothing factor of 0.1. CT HU of WAT was obtained by calibrating the CT data using linear interpolation of water CT Density (CT HU=0) and air CT density (CT HU=−1000). After the scan procedure, animals were allowed to recover from anesthesia, placed in their cages and monitored for normal recovery. All scanning data was acquired in full list mode and sorted into a single frame, 3 dimensional sinogram, which was rebinned using a Fourier rebinning algorithm. The images were reconstructed using 2 dimensional filter back projection using a Hanning Filter with a Nyquist cut off at 0.5, and corrected for attenuation using the Co-57 attenuation scan data. All CT Data analysis was done using PMOD 3.0 software.

[7] = CLAMS metabolic cages: feeding, drinking, RER, energy expenditure; assay type: in vivo, mice
Excerpt: FIGS. 4A through 4D show feeding and drinking patterns of mice analyzed in negative-flow CLAMS (Comprehensive Lab Animal Monitoring system) metabolic cages. All the animals were habituated with the high fat/high fructose diet for at least 7 days prior to the metabolic cage studies. All animals were placed individually in each metabolic cage and habituated for two days under normal 12 hr. light-dark cycle.
Mice were acclimated for 2 days in the metabolic cages before the measurements were made.
FIGS. 5A through 5D show Respiratory Exchange Ratio (RER) and energy expenditure in vehicle controls (n-2) and ShK-186-treated mice (n=2). RER of 0.70 is when a subject is metabolizing pure fat, whereas RER of 1.0 is when a subject is metabolizing pure carbohydrate.

[8] = test system: brown adipose tissue cells; settings: potassium channel blockade; cited from earlier work
[9] = n=2, vs vehicle controls, FIG. 5A-5D

In the case of `CC(C)NCC(O)COc1cccc2ccccc12` (centres unmarked) [propranolol, reference compound], the “18-fluoro-deoxyglucose uptake into brown fat” value [1] is given as “eliminates ^18-fluoro-deoxyglucose uptake into brown fat”, the “inhibition of 18FDG uptake by brown adipose tissue” value ([2]; propranolol 5 m/kg, FIG. 6B) is given as “inhibited” and the “18-fluoro-deoxyglucose uptake into brown fat” value [3] is given as “has the same effect”. For the same molecule, the “inhibition of ShK-186-increased 18FDG uptake by skeletal muscle” value ([4]; propranolol 5 mg/kg) was “did not inhibit this uptake”.
With “p-phospho-Tyr-AEEAc-Arg-Ser-Cys-Ile-Asp-Thr-Ile-Pro-Lys-Ser-Arg-Cys-Thr-Ala-Phe-Gln-Cys-Lys-His-Ser-Met-Lys-Tyr-Arg-Leu-Ser-Phe-Cys-Arg-Lys-Thr-Cys-Gly-Thr-Cys [ShK-186]” the “18FDG uptake by brown adipose tissue” value ([2]; ShK-186 at 100 and 500 μg/kg, FIG. 6A) was “induces ^18FDG-uptake by brown adipose tissue”, the blood glucose levels ([5]; measured every 6 days, FIG. 1B) was “without changing blood glucose levels” and the weight gain ([5]; vs vehicle, dose-dependent, p<0.0001 for all doses, FIG. 1A) was “significantly reduced weight gain”. The “18FDG uptake by skeletal muscle” value ([4]; ShK-186 at 20, 100 and 500 μg/kg) was “increased ^18FDG uptake by skeletal muscle”, the “volume of white adipose tissue” value [6] was “significantly reduced the volume of white adipose tissue” and the “feeding and drinking pattern” value ([7]; given at onset of the measuring phase, controls feed and drink in dark cycle only, p<0.05 after first 24 hrs, FIG. 4A-4D) was “feed and drink during both dark and light cycles”. The “Respiratory Exchange Ratio (RER), substrate metabolized” value ([7]; n=2, especially during the light cycle, FIG. 5A-5D) was “metabolize more carbohydrate than fat”, the “energy expenditure during the day” value [7, 9] was “greater energy expenditure during the day” and the “energy expenditure during the night” value [7, 9] was “roughly equivalent energy expenditure during the night”.
In the case of `CC[N+](CC)(CC)CC` [tetraethylammonium], the “metabolic response of brown adipose tissue cells to adrenergic stimulation” value [8] is listed as “does not alter the metabolic response of brown adipose tissue cells to adrenergic stimulation”.
